The results in this text go back to ChEMBL document CHEMBL4311981, “Synthesis, anticancer activity, and molecular modeling of 1,4-naphthoquinones that inhibit MKK7 and Cdc25” (Eur J Med Chem, 2019).

For test [1], the target named is T1, M-phase inducer phosphatase 1 (Homo sapiens, UniProt P30304).
T1 sequence (P30304 whole entry): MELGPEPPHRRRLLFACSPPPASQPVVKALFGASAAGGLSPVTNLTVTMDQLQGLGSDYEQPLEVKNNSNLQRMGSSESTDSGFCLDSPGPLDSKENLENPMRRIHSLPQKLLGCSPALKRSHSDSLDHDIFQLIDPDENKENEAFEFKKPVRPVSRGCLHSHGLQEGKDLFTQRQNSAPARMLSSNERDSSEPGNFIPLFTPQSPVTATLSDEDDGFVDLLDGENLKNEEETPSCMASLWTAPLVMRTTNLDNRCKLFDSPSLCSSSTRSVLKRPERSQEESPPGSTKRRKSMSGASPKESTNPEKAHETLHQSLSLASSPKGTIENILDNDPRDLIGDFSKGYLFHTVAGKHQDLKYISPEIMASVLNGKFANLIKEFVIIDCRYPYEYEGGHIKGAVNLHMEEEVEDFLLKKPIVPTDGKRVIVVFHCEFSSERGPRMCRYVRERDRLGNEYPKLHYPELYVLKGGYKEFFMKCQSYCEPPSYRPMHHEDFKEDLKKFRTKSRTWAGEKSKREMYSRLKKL
Description: Inhibition of recombinant Cdc25A (unknown origin) using OMFP as substrate measured every 30 sec for 10 mins by fluorometric assay

Test [2] concerns the target T2, Dual specificity mitogen-activated protein kinase kinase 7 (Homo sapiens) (UniProt O14733).
T2 sequence (whole entry): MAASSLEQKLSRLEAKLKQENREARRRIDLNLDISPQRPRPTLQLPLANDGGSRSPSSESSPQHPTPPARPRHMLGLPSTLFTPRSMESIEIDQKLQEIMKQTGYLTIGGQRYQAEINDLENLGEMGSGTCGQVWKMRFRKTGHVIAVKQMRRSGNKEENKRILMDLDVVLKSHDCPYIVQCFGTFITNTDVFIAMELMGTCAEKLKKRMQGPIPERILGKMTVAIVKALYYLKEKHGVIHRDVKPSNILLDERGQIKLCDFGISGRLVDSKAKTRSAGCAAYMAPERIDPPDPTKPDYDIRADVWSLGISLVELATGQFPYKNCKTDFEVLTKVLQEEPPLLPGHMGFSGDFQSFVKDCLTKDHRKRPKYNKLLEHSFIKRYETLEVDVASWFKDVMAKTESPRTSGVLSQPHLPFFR
The experiment in a line: Binding affinity to MKK7 (unknown origin) expressed in HEK293 cells assessed as dissociation constant at <30 uM by kinomescan method. It counts as cell-based.

For test [3], the target named is T3, Neutrophil elastase (Homo sapiens) (UniProt P08246).
T3 sequence (whole entry): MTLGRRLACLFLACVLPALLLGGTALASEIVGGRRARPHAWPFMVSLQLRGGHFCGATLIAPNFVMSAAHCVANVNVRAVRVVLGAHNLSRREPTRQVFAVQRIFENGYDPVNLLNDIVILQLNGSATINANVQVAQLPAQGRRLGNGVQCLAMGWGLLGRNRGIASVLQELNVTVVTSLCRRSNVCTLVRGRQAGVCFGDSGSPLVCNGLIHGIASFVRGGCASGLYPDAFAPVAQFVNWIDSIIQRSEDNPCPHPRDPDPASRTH
Briefly: Inhibition of recombinant HNE (unknown origin) at <50 uM using N-methylsuccinyl-Ala-Ala-Pro-Val-7-amino-4-methylcoumarin, as a substrate measured every 30 sec for 10 mins by fluorometric assay.

In test [4] the target is T4, M-phase inducer phosphatase 2 (Homo sapiens) (UniProt P30305).
T4 sequence (whole entry): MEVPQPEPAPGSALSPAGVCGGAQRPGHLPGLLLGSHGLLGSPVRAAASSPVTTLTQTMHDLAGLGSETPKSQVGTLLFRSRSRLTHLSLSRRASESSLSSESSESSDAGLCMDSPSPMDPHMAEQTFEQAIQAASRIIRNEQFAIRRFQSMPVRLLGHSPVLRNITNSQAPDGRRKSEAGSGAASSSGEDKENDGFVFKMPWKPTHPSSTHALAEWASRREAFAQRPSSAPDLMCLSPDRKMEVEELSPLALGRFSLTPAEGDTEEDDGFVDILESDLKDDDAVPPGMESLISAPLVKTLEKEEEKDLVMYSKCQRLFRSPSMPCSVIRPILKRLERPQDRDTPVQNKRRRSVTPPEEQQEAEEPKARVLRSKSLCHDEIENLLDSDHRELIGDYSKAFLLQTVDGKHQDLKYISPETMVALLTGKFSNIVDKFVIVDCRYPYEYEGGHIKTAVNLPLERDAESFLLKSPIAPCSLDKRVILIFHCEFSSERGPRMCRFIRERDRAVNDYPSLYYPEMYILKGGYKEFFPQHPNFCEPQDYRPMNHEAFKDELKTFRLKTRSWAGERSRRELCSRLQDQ
The experiment in a line: Inhibition of recombinant Cdc25B (unknown origin) at <50 uM using OMFP as substrate measured every 30 sec for 10 mins by fluorometric assay.

Another test has as its system THP-1. Briefly: Cytotoxicity against human THP1 cells assessed as reduction in cell viability incubated for 24 hrs by CellTiter-Glo luminescent cell viability assay. Type of test: functional, cell-based. The conditions noted are these: THP-1, 24 h.
The subject of a further test is HL-60. The experiment in a line: Cytotoxicity against human HL60 cells assessed as reduction in cell viability incubated for 24 hrs by CellTiter-Glo luminescent cell viability assay. Type of test: functional, cell-based. As to conditions: HL-60, 24 h. In general terms: In ATP-based viability assays light output follows the ATP content of the culture.
The test system of another test is LS174T. The experiment in a line: Cytotoxicity against human LS174T cells assessed as reduction in cell viability incubated for 24 hrs by CellTiter-Glo luminescent cell viability assay. Type of test: functional, cell-based.
A further test has as its system Jurkat. Briefly: cells. The conditions noted are these: Homo sapiens, 24 h.
Another test relates to A549. Briefly: Cytotoxicity against human A549 cells assessed as reduction in cell viability incubated for 24 hrs by CellTiter-Glo luminescent cell viability assay. It counts as functional, cell-based. As to conditions: A549, 24 h.
The subject of the next test is SW982. Briefly: Cytotoxicity against human SW982 cells assessed as reduction in cell viability incubated for 24 hrs by CellTiter-Glo luminescent cell viability assay. Type of test: functional, cell-based. The conditions noted are these: SW982, 24 h.
In test [5] the target is T5, Dual specificity mitogen-activated protein kinase kinase 7 (Homo sapiens, UniProt O14733).
T5 sequence (O14733 whole entry): T2 sequence (whole entry)
Briefly: biochemical.
Description: Binding affinity to MKK7 (unknown origin) expressed in HEK293 cells assessed as dissociation constant by kinomescan method

The next test relates to MCF7. The experiment in a line: Cytotoxicity against human MCF7 cells assessed as reduction in cell viability incubated for 24 hrs by CellTiter-Glo luminescent cell viability assay. Type of test: functional, cell-based. The conditions noted are these: MCF7, 24 h.
The subject of another test is MONO-MAC-6. Briefly: Cytotoxicity against human MONO-MAC-6 cells assessed as reduction in cell viability incubated for 24 hrs by CellTiter-Glo luminescent cell viability assay. Type of test: functional, cell-based. The conditions noted are these: MONO-MAC-6, 24 h.
The target in test [6] is T6, M-phase inducer phosphatase 2 (Homo sapiens, UniProt P30305).
T6 sequence (P30305 whole entry): T4 sequence (whole entry)
Description: Inhibition of recombinant Cdc25B (unknown origin) using OMFP as substrate measured every 30 sec for 10 mins by fluorometric assay

The subject of a further test is U-937. Briefly: Cytotoxicity against human U937 cells assessed as reduction in cell viability incubated for 24 hrs by CellTiter-Glo luminescent cell viability assay. It counts as functional, cell-based. As to conditions: U-937, 24 h.
A further test concerns PBMC. The experiment in a line: Cytotoxicity against human PBMC cells assessed as reduction in cell viability incubated for 24 hrs by CellTiter-Glo luminescent cell viability assay. It counts as cell-based. As to conditions: read-out: IC50.
The target of test [7] is T7, M-phase inducer phosphatase 1 (Homo sapiens) (UniProt P30304).
T7 sequence (whole entry): T1 sequence (P30304 whole entry)
Briefly: Inhibition of recombinant Cdc25A (unknown origin) at <50 uM using OMFP as substrate measured every 30 sec for 10 mins by fluorometric assay.

Calls of active or inactive are those of the source. No cut-off for these calls is given here.

What is called IC50 is the point on the concentration scale where inhibition reaches its midpoint. Broadly, the Kd is a measure of binding affinity in units of concentration. Read a high Kd as lower affinity.

Description for Jurkat: Cytotoxicity against human Jurkat cells assessed as reduction in cell viability incubated for 24 hrs by CellTiter-Glo luminescent cell viability assay

As to `O=C(O)CNC1=C(Cl)C(=O)c2ccccc2C1=O`, in test [1], half-maximal inhibition (IC50) was put at 36 µM. Besides, the inhibition entry in test [2], in test [3] and in [4] was “inactive” each time.

For `CC1=C(SC(C)C)C(=O)c2ccccc2C1=O`, the IC50 in the test with THP-1 was 3.6 µM; in the test with HL-60, 4.3 µM; in the test on LS174T it was 20.8 µM; in the test with Jurkat, 4.7 µM; in [1] it was 6.3 µM; in the test with A549, 24 µM. Also, the IC50 in the test on SW982 is 12.8 µM; with MCF7, 16.8 µM; in the test on MONO-MAC-6, 2 µM; in [6], 9.1 µM; with U-937, 8.9 µM. For the same molecule, the inhibition entry in test [3] is “inactive”. For the same molecule, in test [5], binding was put at a Kd of 13 µM.

For `O=C1C(SCCO)=C(SCCO)C(=O)c2ccccc21`, the IC50 was determined as 1 µM in the test with HL-60; 18.1 µM with LS174T; 3.7 µM with Jurkat; 7.8 µM with PBMC; 13.1 µM in the test with A549; 7.9 µM in the test on SW982. The IC50 in the test on MCF7 came to 9.4 µM; in the test with MONO-MAC-6 it was 4.2 µM; with U-937, 3.9 µM. The inhibition entry in test [3] is “inactive”. Moreover, the Kd in test [5] was found to be 1.1 µM.

In the case of `CCSC1=C(C)C(=O)c2ccccc2C1=O`, the IC50 with THP-1 turned out to be 2.9 µM; in the test with HL-60, 3.1 µM; with LS174T, 17.3 µM; in the test on Jurkat it was 3.9 µM; in test [1] it was 5.5 µM; in the test with A549, 21.5 µM. Moreover, the concentration for half-maximal inhibition (IC50) is 7.8 µM in the test with SW982; 12.2 µM in the test with MCF7; 3.3 µM with MONO-MAC-6; 4.7 µM in [6]; 6.7 µM in the test on U-937. Moreover, the inhibition entry in test [3] is “inactive”. In test [5], this molecule displayed a Kd of 13 µM.

Turning to `CC(C)(C)[C@H]1CC[C@H](CC2=C(O)C(=O)c3ccccc3C2=O)CC1` [BUPARVAQUONE], in test [2], the result was inactive. Besides, the inhibition entry in test [3] and in test [7] was “inactive” each time. Moreover, inhibition in [6] was half-maximal at 12 µM (IC50).

In the case of `COCCSC1=C(C)C(=O)c2ccccc2C1=O`, the IC50 was found to be 2.2 µM in the test with THP-1; 1.6 µM in the test on HL-60; 15.7 µM with LS174T; 3.2 µM in the test with Jurkat; 5.7 µM in test [1]; 18.6 µM with A549. The IC50 in the test on SW982 was 9.7 µM; in the test with MCF7, 14.9 µM; in the test with MONO-MAC-6, 1.7 µM; in [6], 6.5 µM; with U-937, 5.3 µM. Moreover, the inhibition result in [3] was “inactive”. The molecule also had a Kd in test [5] of 14 µM.

Consider `O=C(O)CCSC1=CC(=O)c2ccccc2C1=O`, for which the IC50 in the test on THP-1 was 17.6 µM; in the test on HL-60, 15 µM; in the test on Jurkat, 9.1 µM; in [1], 1.5 µM; with PBMC, 23.4 µM; in the test on SW982 it was 10.5 µM. In addition, the IC50 amounted to 22 µM in the test on MONO-MAC-6, 1.6 µM in [6] and 18.6 µM with U-937. In addition, the inhibition entry in test [3] is “inactive”. The molecule further yielded a Kd in test [5] of 0.23 µM.

In the case of `O=C1C(Cl)=C(NCCCN2CCOCC2)C(=O)c2ccccc21`, the inhibition result in test [2], in [3], in test [7] and in test [4] was “inactive” throughout.

`O=C1C(Cl)=C(NCCCO)C(=O)c2ccccc21`: the IC50 in test [1] was 45.7 µM. Further, the inhibition entry in test [2], in test [3] and in test [4] was “inactive” each time.

In turn, `O=C1C(Cl)=C(NCCO)C(=O)c2ccccc21` showed an IC50 in [1] of 45.3 µM. Moreover, the inhibition entry in [2], in test [3] and in [4] was “inactive” in each case.

Turning to `O=C(O)c1cccc(NC2=C(Cl)C(=O)c3ccccc3C2=O)c1`, the IC50 in the test on THP-1 amounted to 8.6 µM; in the test with HL-60 it was 12.1 µM; in the test on LS174T, 11.7 µM; with Jurkat, 8.2 µM; in [1] it was 32.9 µM; in the test with PBMC it was 37.9 µM. Moreover, the IC50 worked out at 26.2 µM in the test on A549; 5.5 µM with SW982; 28.5 µM in the test with MCF7; 13.4 µM in the test on MONO-MAC-6; 24.3 µM in [6]; 7.6 µM with U-937. Besides, the inhibition entry in test [3] is “inactive”. Also, the Kd in test [5] was 1.9 µM.

On to `COC1=C(OC)C(=O)c2ccccc2C1=O`, for which the IC50 amounted to 8.2 µM in the test with THP-1; 5.4 µM with HL-60; 27.9 µM in the test on LS174T; 8.9 µM in test [1]; 18.5 µM in the test with PBMC; 15.6 µM with A549. For the same molecule, the IC50 in the test with SW982 turned out to be 20.6 µM; in the test on MCF7 it was 6.3 µM; with MONO-MAC-6, 3.6 µM; in test [6] it was 17.4 µM; with U-937 it was 11.3 µM. In addition, the inhibition entry in test [3] is “inactive”. The molecule also returned a Kd in test [5] of 27 µM.

On to `COC(=O)c1ccc(NC2=C(OC)C(=O)c3ccccc3C2=O)cc1`, for which the inhibition entry in test [2], in test [3], in test [7] and in [4] was “inactive” each time.
